Measured values as given in patent publication US20110293518A1 (GE HEALTHCARE LIMITED, priority 2005, published 2011).

Legend:
[1] = PET with DDE (and GLD) in patients with whiplash associated disorder (WAD); format: in vivo, human; details: for increase of uptake at cervical vertebrae 2 and 3 (insertion in m. semispinalis capitis): one case
From the text: Clinically, those patients with a higher uptake of DDE in the affected joint areas seem to report high pain ratings while being in the scanner.
In a similar experiment, sixteen patients were investigated using a high resolution PET scanner.
In the […] experiments, local uptake was present in all cases in the parotis and submandibularis glandulae. Differences between patients were found in areas related to the insertion of muscles to the occipital bone, vertebrae and clavicula.

[2] = PET-CT with DDE in healthy subjects; format: in vivo, human; details: eight healthy subjects
From the text: In a third experiment eight healthy subjects were investigated using a PET-CT (Computerized Tomography) scanner. PET/CT combines the strengths of two well-established imaging modalities, PET for function and CT for anatomy, into a single imaging device. The subjects were free from pain in the neck and shoulder regions during at least two months and they had not been involved in accidents which could have caused a neck injury.

[3] = PET with DDE in inflamed joints (rheumatoid arthritis patients); format: in vivo, human
[4] = Frozen section autoradiography / in vitro binding on tissue slices; set-up: species or system human; details: for tracer binding in inflammatory tissues in vitro: about 20 micrometer slices, about 2 nM tracer, about 40 minutes, room temperature
Description: There are various hypothesis as to what biological mechanisms are behind the high uptake of DDE in inflammatory joint tissues of humans.
The in vitro binding experiments were performed on thin slices of tissue of about 20 micrometers in rats and in humans. The thin slices of tissues were adhered to gelatinized slide glasses. […] After incubation the slide glasses were washed about 3 times in a buffer, dried, and exposed on phosphor imaging plates for a minimum of 60 minutes.

[5] = Pilot PET experiments in patients with bacterial abscesses; format: in vivo, human; details: small pilot series in patients

| Structure (SMILES) | increase in uptake compared with the cerebellum, insertion of m. rectus capitis posterior major ([1]; bilaterally in 3 patients, normalized to inferior part of the cerebellum) | binding of tracer to soft tissue in the neck vertebra ([1]; four of eight WAD patients, PET) | difference in uptake between right and left side ([1]; fourth patient, no clear increase) [%] | increase of uptake at cervical vertebrae 2 and 3 (insertion in m. semispinalis capitis) [1] | patients with increased uptake in the neck and shoulder areas ([1]; sixteen patients, high resolution PET scanner) | increased uptake in scanned neck and shoulder regions [2] | uptake and retention on swollen synovial tissue ([3]; inflamed synovial joints) | uptake in affected joint after intra-articular injections of glucocorticoids ([3]; observed 6-14 days after treatment) | blocking of uptake in inflamed joint by Eldepryl (MAO-B blocking) ([3]; one patient re-examined after administration of Eldepryl) | activity in inflamed tissue as seen in PET images ([3]; patients with rheumatoid arthritis) | reduction of activity in inflamed tissue ([3]; the day after intra-articular administration of glucocorticoid) [%] | tracer binding in inflammatory tissues in vitro [4] | binding in frozen section autoradiography ([4]; various tissues) | increase of tracer uptake in bacterial abscesses [5] |
| --- | --- | --- | --- | --- | --- | --- | --- | --- | --- | --- | --- | --- | --- | --- |
| C#CCN([11CH3])[C@@H](C)Cc1ccccc1 [DDE, D-[methyl-^11C]-deprenyl] | 57%-127% | appeared to bind to soft tissue in the neck vertebra | 40 | approximately 70% | about 50% | None of the subjects revealed an increased uptake | very pronounced uptake and retention | significant diminishing of the uptake | no blocking effect | very high activity | 50 | very high | much higher binding in inflamed joints than any other tissues | no visible increase |
| [11CH3]Oc1ccc(-n2nnnc2C(F)(F)F)cc1CN[C@H]1CCCN[C@H]1c1ccccc1 [GLD, [^11C]-GR205171] |  |  |  | approximately 70% |  |  |  |  |  |  |  | very high |  | no visible increase |
